Source: US5869476A, “Pyrimidinone derivatives” (Boryung Pharmaceutical Co., Ltd., priority 1994, dated 1999)
Read-outs that look alike come from different tables or passages of the source.

Molecular target: T1, angiotensin II receptor (Oryctolagus cuniculus, UniProt P34976)
T1 construct: The aorta was cut into 3~4 mm to form ring samples; from tissue; host or cells: isolated aorta rings of New Zealand White rabbits
T1 sequence (P34976 1-359): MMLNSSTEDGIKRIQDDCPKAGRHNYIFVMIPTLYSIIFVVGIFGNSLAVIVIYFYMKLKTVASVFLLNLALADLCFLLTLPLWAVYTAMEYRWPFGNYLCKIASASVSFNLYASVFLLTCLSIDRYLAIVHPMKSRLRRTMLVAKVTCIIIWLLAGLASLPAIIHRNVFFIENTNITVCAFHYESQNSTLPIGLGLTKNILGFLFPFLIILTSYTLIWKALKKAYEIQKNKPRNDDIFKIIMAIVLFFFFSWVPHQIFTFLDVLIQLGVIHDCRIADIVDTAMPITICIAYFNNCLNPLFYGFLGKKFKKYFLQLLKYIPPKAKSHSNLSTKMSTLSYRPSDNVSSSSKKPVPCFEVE
Experiment: inhibition of angiotensin II induced contraction of isolated rabbit aorta rings
Type: cell-based, New Zealand White rabbit
Details: test compound incubated 20 minutes
Method: The antagonistic activity of the representative compounds of the invention was evaluated using the methodology describe below.
From New Zealand White rabbits (male or female, 2~2.5 kg), aorta was isolated, and fat and connected tissue were removed therefrom. The aorta was cut into 3~4 mm to form ring samples. The aorta sample was suspended in 20 ml of organ bath (37° C.) containing modified Krebs-Henseleit solution saturated with 95% O2 /5% CO2 (pH 7.4).
The aorta preparation was exposed consecutively to 2 g of tensile strength for 90 minutes intermittently washing the sample with 30 minutes interval and then to 30 mM of KCl to observe contraction response. After washing more than three times, the aorta preparation was again allowed to contract three times for stabilization by adding Angiotensin II ([…]) thereto with 30 minutes interval. The third contraction response to Angiotensin II was considered as control.
10 minutes after the third contraction, the test compound was administered to the aorta preparation, which was incubated for 20 minutes.
Comparing angiotensin II contraction curve obtained from the above inhibition test with that of the control, IC50 (concentration being required to inhibit angiotensin II induced contraction by 50%) was determined for each test compound(Table 1).

[1] = 37° C., pH 7.4, read-out: IC50 (concentration being required to inhibit angiotensin II induced contraction by 50%)

IC50 [1] | IC50 (value given in M, read-out: IC50 (concentration being required to inhibit angiotensin II induced contraction by 50%)) | Structure (SMILES)
2.74 nM |  | CCCCc1nc(C)c(CC(=O)N2CCCC2)c(=O)n1Cc1ccc(-c2ccccc2-c2nnn[nH]2)cc1 [Compound 40, 2-n-butyl-5-pyrrolidinocarbonylmethyl-6-methyl-3-[[2'-(1H-tetrazol-5-yl)biphenyl-4-yl]methyl]-pyrimidin-4-(3H)-one]
119 nM |  | CCCCc1nc(=O)c(CC(=O)N2CCCC2)c(C)n1Cc1ccc(-c2ccccc2-c2nn[nH]n2)cc1 [Compound 41, 2-n-butyl-5-pyrrolidinocarbonylmethyl-6-methyl-1-[[2'-(1H-tetrazol-5-yl)biphenyl-4-yl]methyl]-pyrimidin-4-(1H) -one]
2.06 nM |  | CCCCc1nc(C)c(CC(=O)N2CCC[C@H]2C(=O)OC)c(=O)n1Cc1ccc(-c2ccccc2-c2nn[nH]n2)cc1 [Compound 42, 2-n-butyl-5-[(S)-2'-methoxycarbonylpyrrolidinocarbonylmethyl]-6-methyl-3-[[2'-(1H-tetrazol-5-yl)biphenyl-4-yl]methyl]-pyrimidin-4-(3H)-one]
2.08 nM |  | CCCCc1nc(C)c(CC(=O)N2CCC[C@H]2C(N)=O)c(=O)n1Cc1ccc(-c2ccccc2-c2nn[nH]n2)cc1 [Compound 43, 2-n-butyl-5-[(S)-2'-aminocarbonylpyrrolidinocarbonylmethyl]-6-methyl-3-[[2'-(1H-tetrazol-5-yl)biphenyl-4-yl]methyl]-pyrimidin-4-(3H)-one]
2.04 nM |  | CCCCc1nc(C)c(CC(=O)N2CC=CC2)c(=O)n1Cc1ccc(-c2ccccc2-c2nn[nH]n2)cc1 [Compound 44, 2-n-butyl-5-(3'-pyrrolinocarbonylmethyl)-6-methyl-3-[[2'-(1H-tetrazol-5-yl)biphenyl-4-yl]methyl]-pyrimidin-4-(3H)-one]
2.46 nM |  | CCCCc1nc(C)c(CC(=O)N2CCCCC2)c(=O)n1Cc1ccc(-c2ccccc2-c2nn[nH]n2)cc1 [Compound 45, 2-n-butyl-5-piperidinocarbonylmethyl-6-methyl-3-[[2'-(1H-tetrazol-5-yl)biphenyl-4-yl]methyl]-pyrimidin-4-(3H)-one]
405 nM |  | CCCCc1nc(=O)c(CC(=O)N2CCCCC2)c(C)n1Cc1ccc(-c2ccccc2-c2nn[nH]n2)cc1 [Compound 46, 2-n-butyl-5-piperidinocarbonylmethyl-6-methyl-1-[[2'-(1H-tetrazol-5-yl)biphenyl-4-yl]methyl]-pyrimidin-4-(1H)-one]
128 nM |  | CCCCc1nc(C)c(CC(=O)N2CCC(Cc3ccccc3)CC2)c(=O)n1Cc1ccc(-c2ccccc2-c2nn[nH]n2)cc1 [Compound 47, 2-n-butyl-5-(4'-benzylpiperidinocarbonylmethyl)-6-methyl-3-[[2'-(1H-tetrazol-5-yl)biphenyl-4-yl]methyl]-pyrimidin-4-(3H) -one]
 | > 10000 nM | CCCCc1nc(C)c(CC(=O)N2CCC(C)CC2)c(=O)n1Cc1ccc(-c2ccccc2-c2nn[nH]n2)cc1 [Compound 48, 2-n-butyl-5-(4'-methylpiperidinocarbonylmethyl)-6-methyl-3-[[2'-(1H-tetrazol-5-yl)biphenyl-4-yl]methyl]-pyrimidin-4-(3H)-one]
8.96 nM |  | CCCCc1nc(C)c(CC(=O)N2CCCC(C)(C)C2)c(=O)n1Cc1ccc(-c2ccccc2-c2nn[nH]n2)cc1 [Compound 49, 2-n-butyl-5-(3',3'-dimethylpiperidinocarbonylmethyl)-6-methyl-3-[[2'-(1H-tetrazol-5-yl)biphenyl-4-yl]methyl]-pyrimidin-4-(3H)-one]
28.4 nM |  | CCCCc1nc(C)c(CC(=O)N2[C@H](C)CCC[C@@H]2C)c(=O)n1Cc1ccc(-c2ccccc2-c2nn[nH]n2)cc1 [Compound 50, 2-n-butyl-5-(cis-2',6'-dimethylpiperidinocarbonylmethyl)-6-methyl-3-[[2'-(1H-tetrazol-5-yl)biphenyl-4-yl]methyl]-pyrimidin-4-(3H)-one]
5.99 nM |  | CCCCc1nc(C)c(CC(=O)N2CCC(C(=O)OCC)CC2)c(=O)n1Cc1ccc(-c2ccccc2-c2nn[nH]n2)cc1 [Compound 51, 2-n-butyl-5-(4'-ethoxycarbonylpiperidinocarbonylmethyl)-6-methyl-3-[[2'-(1H-tetrazol-5-yl)biphenyl-4-yl]methyl]-pyrimidin-4-(3H)-one]
3.56 nM |  | CCCCc1nc(C)c(CC(=O)N2CCCC(C(=O)OCC)C2)c(=O)n1Cc1ccc(-c2ccccc2-c2nn[nH]n2)cc1 (centres unmarked) [Compound 52, 2-n-butyl-5-(3'-ethoxycarbonylpiperidinocarbonylmethyl)-6-methyl-3-[[2'-(1H-tetrazol-5-yl)biphenyl-4-yl]methyl]-pyrimidin-4-(3H)-one]
6.24 nM |  | CCCCc1nc(C)c(CC(=O)N2CCCCC2C(=O)OCC)c(=O)n1Cc1ccc(-c2ccccc2-c2nn[nH]n2)cc1 (centres unmarked) [Compound 53, 2-n-butyl-5-(2'-ethoxycarbonylpiperidinocarbonylmethyl)-6-methyl-3-[[2'-(1H-tetrazol-5-yl)biphenyl-4-yl]methyl]-pyrimidin-4-(3H)-one]
2.2 nM |  | CCCCc1nc(C)c(CC(=O)N2CCC(C(N)=O)CC2)c(=O)n1Cc1ccc(-c2ccccc2-c2nn[nH]n2)cc1 [Compound 54, 2-n-butyl-5-(4'-aminocarbonylpiperidinocarbonylmethyl)-6-methyl-3-[[2'-(1H-tetrazol-5-yl)biphenyl-4-yl]methyl]-pyrimidin-4-(3H)-one]

Further lines, the molecule ahead of its results:

Structure (SMILES) | IC50 [1] | IC50 (value given in M, read-out: IC50 (concentration being required to inhibit angiotensin II induced contraction by 50%))
CCCCc1nc(C)c(CCCC(=O)OCC)c(=O)n1Cc1ccc(-c2ccccc2-c2nnn[nH]2)cc1 [Compound 29, 2-n-butyl-5-(3'-ethoxycarbonylpropyl)-6-methyl-3-[[2'-(1H-tetrazol-5-yl)biphenyl-4-yl]methyl]-pyrimidin-4-(3H)-one] | 17 nM | 
CCCCc1nc(C)c(CCCC(=O)O)c(=O)n1Cc1ccc(-c2ccccc2-c2nnn[nH]2)cc1 [Compound 30, 2-n-butyl-5-(3'-carboxypropyl)-6-methyl-3-[[2'-(1H-tetrazol-5-yl)biphenyl-4-yl]methyl]-pyrimidin-4-(3H)-one] | 7.26 nM | 
CCCCc1nc(=O)c(CCCC(=O)O)c(C)n1Cc1ccc(-c2ccccc2-c2nn[nH]n2)cc1 [Compound 31, 2-n-butyl-5-(3'-carboxypropyl)-6-methyl-1-[[2'-(1H-tetrazol-5-yl)biphenyl-4-yl]methyl]-pyrimidin-4-(1H)-one] | 17 nM | 
CCCCc1nc(C)c(CCCC(=O)N(CC)CC)c(=O)n1Cc1ccc(-c2ccccc2-c2nn[nH]n2)cc1 [Compound 32, 2-n-butyl-5-(3'-diethylaminocarbonylpropyl)-6-methyl-3-[[2'-(1H-tetrazol-5-yl)biphenyl-4-yl]methyl]-pyrimidin-4-(3H )-one] | 2.95 nM | 
CCCCc1nc(CC)c(CCC(=O)OCC)c(=O)n1Cc1ccc(-c2ccccc2-c2nn[nH]n2)cc1 [Compound 33, 2-n-butyl-5-(2'-ethoxycarbonylethyl)-6-ethyl-3-[[2'-(1H-tetrazol-5-yl)biphenyl-4-yl]methyl]-pyrimidin-4-(3H)-one] | 11.2 nM | 
CCCCc1nc(CC)c(CCC(=O)O)c(=O)n1Cc1ccc(-c2ccccc2-c2nn[nH]n2)cc1 [Compound 34, 2-n-butyl-5-(2'-carboxyethyl)-6-ethyl-3-[[2'-(1H-tetrazol-5-yl)-biphenyl-4-yl]methyl]-pyrimidin-4-(3H)-one] | 4.17 nM | 
CCCCc1nc(=O)c(CCC(=O)O)c(CC)n1Cc1ccc(-c2ccccc2-c2nn[nH]n2)cc1 [Compound 35, 2-n-butyl-5-(2'-carboxyethyl)-6-ethyl-1-[[2'-(1H-tetrazol-5-yl)-biphenyl-4-yl]methyl]-pyrimidin-4-(1H)-one] | 62 nM | 
CCCCc1nc(CCC)c(CCC(=O)OCC)c(=O)n1Cc1ccc(-c2ccccc2-c2nn[nH]n2)cc1 [Compound 36, 2-n-butyl-5-(2'-ethoxycarbonylethyl)-6-propyl-3-[[2'-(1H-tetrazol-5-yl)biphenyl-4-yl]methyl]-pyrimidin-4-(3H)-one] | 44.5 nM | 
CCCCc1nc(=O)c(CCC(=O)O)c(CCC)n1Cc1ccc(-c2ccccc2-c2nn[nH]n2)cc1 [Compound 37, 2-n-butyl-5-(2'-carboxyethyl)-6-propyl-1-[[2'-(1H-tetrazol-5-yl)-biphenyl-4-yl]methyl]-pyrimidin-4-(1H)-one] | 115 nM | 
CCCCc1nc(C)c(CC(=O)OCC)c(=O)n1Cc1ccc(-c2ccccc2C(=O)O)cc1 [Compound 38, 2-n-butyl-5-ethoxycarbonylmethyl-6-methyl-3-(2'-carboxy-biphenyl-4-yl)methyl-pyrimidin-4-(3H)-one] | 335 nM | 
CCCCc1nc(C)c(CC(=O)O)c(=O)n1Cc1ccc(-c2ccccc2C(=O)O)cc1 [Compound 39, 2-n-butyl-5-carboxymethyl-6-methyl-3-(2'-carboxybiphenyl-4-yl)methyl-pyrimidin-4-(3H)-one] | 36.1 nM | 
